Test results as given in article PMC5218480 (PLoS ONE, 2017).

System: MV-4-11 cells
Test: Gene expression microarray analysis (Affymetrix PrimeView) and GSEA
Format: cell-based, human
Design: RFU PODN (11730768_x_at) / Fold change /veh PODN (11730768_x_at) / RFU LINC00158 (11744669_a_at) / Fold change /veh LINC00158 (11744669_a_at) / RFU DUSP10 (11751237_a_at) / Fold change /veh DUSP10 (11751237_a_at) / RFU ID3 (11757404_x_at) / Fold change /veh ID3 (11757404_x_at) / RFU PLEKHG5 (11737974_s_at) / Fold change /veh PLEKHG5 (11737974_s_at) / RFU LRRC4B (11730491_at) / Fold change /veh LRRC4B (11730491_at) / RFU GIMAP4 (11747438_a_at) / Fold change /veh GIMAP4 (11747438_a_at) / RFU KRT8 (11758183_x_at) / Fold change /veh KRT8 (11758183_x_at) / RFU CNN1 (11734310_a_at) / Fold change /veh CNN1 (11734310_a_at) / RFU VPS37D (11726825_at) / Fold change /veh VPS37D (11726825_at) / RFU C10orf10 (11716522_x_at) / Fold change /veh C10orf10 (11716522_x_at) / RFU KIR2DL2 /// KIR2DL4 /// KIR2DL5A /// KIR2DL5B /// KIR2DS1 /// KIR2DS2 /// KIR2DS3 /// KIR2DS4 /// KIR3DL3 /// KIR3DL3 /// KIR3DS1 (11738374_at) / Fold change /veh KIR2DL2 /// KIR2DL4 /// KIR2DL5A /// KIR2DL5B /// KIR2DS1 /// KIR2DS2 /// KIR2DS3 /// KIR2DS4 /// KIR3DL3 /// KIR3DL3 /// KIR3DS1 (11738374_at) / RFU C1QL1 (11718748_at) / Fold change /veh C1QL1 (11718748_at) / RFU TMPRSS4 (11747572_a_at) / Fold change /veh TMPRSS4 (11747572_a_at) / RFU HAMP (11756126_x_at) / Fold change /veh HAMP (11756126_x_at) / RFU RNFT2 (11725882_a_at) / Fold change /veh RNFT2 (11725882_a_at) / RFU NR4A2 (11747474_a_at) / Fold change /veh NR4A2 (11747474_a_at) / RFU ABCC12 (11746883_a_at) / Fold change /veh ABCC12 (11746883_a_at) / RFU TMEM136 (11760407_x_at) / Fold change /veh TMEM136 (11760407_x_at) / RFU CLDN22 /// WWC2 (11732394_at) / Fold change /veh CLDN22 /// WWC2 (11732394_at) / RFU HLA-DPB1 (11760878_x_at) / Fold change /veh HLA-DPB1 (11760878_x_at) / RFU SPINT1 (11716480_a_at) / Fold change /veh SPINT1 (11716480_a_at) / RFU GAP43 (11754022_s_at) / Fold change /veh GAP43 (11754022_s_at) / RFU A4GNT (11735810_at) / Fold change /veh A4GNT (11735810_at) / RFU PRB3 (11715151_x_at) / Fold change /veh PRB3 (11715151_x_at) / RFU TUBB4B (11761932_at) / Fold change /veh TUBB4B (11761932_at) / RFU CAPN14 (11732068_a_at) / Fold change /veh CAPN14 (11732068_a_at) / RFU TMCC2 (11721928_a_at) / Fold change /veh TMCC2 (11721928_a_at) / RFU IRGQ (11745062_a_at) / Fold change /veh IRGQ (11745062_a_at) / RFU FAM174B (11720279_a_at) / Fold change /veh FAM174B (11720279_a_at) / RFU TMPRSS4 (11748680_a_at) / Fold change /veh TMPRSS4 (11748680_a_at) / RFU FAM212B (11763350_a_at) / Fold change /veh FAM212B (11763350_a_at) / RFU PLEKHG5 (11743358_a_at) / Fold change /veh PLEKHG5 (11743358_a_at) / RFU ZSCAN30 (11745921_a_at) / Fold change /veh ZSCAN30 (11745921_a_at) / RFU CMKLR1 (11741424_a_at) / Fold change /veh CMKLR1 (11741424_a_at) / RFU LOC101060620 /// MAPK8IP1 (11723275_at) / Fold change /veh LOC101060620 /// MAPK8IP1 (11723275_at) / RFU SPTSSB (11747773_x_at) / Fold change /veh SPTSSB (11747773_x_at) / RFU PRSS12 (11739890_at) / Fold change /veh PRSS12 (11739890_at) / RFU BIN1 (11741810_x_at) / Fold change /veh BIN1 (11741810_x_at) / RFU WNT11 (11732464_a_at) / Fold change /veh WNT11 (11732464_a_at) / RFU C10orf10 (11716521_a_at) / Fold change /veh C10orf10 (11716521_a_at) / RFU C5orf56 (11738089_at) / Fold change /veh C5orf56 (11738089_at) / RFU CYB561 (11721691_x_at) / Fold change /veh CYB561 (11721691_x_at) / RFU ANKRD19P (11752326_a_at) / Fold change /veh ANKRD19P (11752326_a_at) / RFU OR2T12 /// OR2T33 /// OR2T8 (11738714_s_at) / Fold change /veh OR2T12 /// OR2T33 /// OR2T8 (11738714_s_at) / RFU VCAN (11748164_a_at) / Fold change /veh VCAN (11748164_a_at) / RFU JSRP1 (11732532_at) / Fold change /veh JSRP1 (11732532_at) / RFU KRTAP10-11 (11738290_x_at) / Fold change /veh KRTAP10-11 (11738290_x_at) / RFU MYO3A (11730013_a_at) / Fold change /veh MYO3A (11730013_a_at) / RFU EBF3 (11725865_a_at) / Fold change /veh EBF3 (11725865_a_at) / RFU CAMK2N1 (11719241_x_at) / Fold change /veh CAMK2N1 (11719241_x_at) / RFU C5orf56 (11738088_a_at) / Fold change /veh C5orf56 (11738088_a_at) / RFU OLFML3 (11715873_a_at) / Fold change /veh OLFML3 (11715873_a_at) / RFU LOC100653217 /// NTM (11731650_a_at) / Fold change /veh LOC100653217 /// NTM (11731650_a_at) / RFU MAPK11 (11762145_a_at) / Fold change /veh MAPK11 (11762145_a_at) / RFU FIZ1 (11724087_x_at) / Fold change /veh FIZ1 (11724087_x_at) / RFU OASL (11726364_x_at) / Fold change /veh OASL (11726364_x_at) / RFU SOX15 (11748057_x_at) / Fold change /veh SOX15 (11748057_x_at) / RFU CD79A (11719716_a_at) / Fold change /veh CD79A (11719716_a_at) / RFU HIST1H1D (11736915_at) / Fold change /veh HIST1H1D (11736915_at) / RFU CASKIN2 (11723855_a_at) / Fold change /veh CASKIN2 (11723855_a_at) / RFU LOC730098 (11760151_x_at) / Fold change /veh LOC730098 (11760151_x_at) / RFU OR4N2 (11742367_at) / Fold change /veh OR4N2 (11742367_at) / RFU PRRT2 (11749266_a_at) / Fold change /veh PRRT2 (11749266_a_at) / RFU SNX32 (11753110_a_at) / Fold change /veh SNX32 (11753110_a_at) / RFU CDHR5 (11726645_a_at) / Fold change /veh CDHR5 (11726645_a_at) / RFU RCAN1 (11760418_a_at) / Fold change /veh RCAN1 (11760418_a_at) / RFU FAM167A (11723789_a_at) / Fold change /veh FAM167A (11723789_a_at) / RFU FAM26E (11764081_at) / Fold change /veh FAM26E (11764081_at) / RFU ISYNA1 (11749810_s_at) / Fold change /veh ISYNA1 (11749810_s_at) / RFU ACY1 (11761880_at) / Fold change /veh ACY1 (11761880_at) / RFU 11764098_at / Fold change /veh 11764098_at / RFU SAMD14 (11745864_x_at) / Fold change /veh SAMD14 (11745864_x_at) / RFU NPB (11741838_a_at) / Fold change /veh NPB (11741838_a_at) / RFU TMPRSS6 (11731388_a_at) / Fold change /veh TMPRSS6 (11731388_a_at) / RFU KRTAP10-2 (11738614_at) / Fold change /veh KRTAP10-2 (11738614_at) / RFU ARHGAP8 /// PRR5-ARHGAP8 (11727945_x_at) / Fold change /veh ARHGAP8 /// PRR5-ARHGAP8 (11727945_x_at) / RFU KRTAP5-7 /// NADSYN1 (11734609_at) / Fold change /veh KRTAP5-7 /// NADSYN1 (11734609_at) / RFU RASL12 (11751679_a_at) / Fold change /veh RASL12 (11751679_a_at) / RFU CDKN2B (11736163_a_at) / Fold change /veh CDKN2B (11736163_a_at) / RFU PRF1 (11729649_at) / Fold change /veh PRF1 (11729649_at) / RFU, ZNF638 /// ZNF638-IT1 / Fold change vs veh, ZNF638 /// ZNF638-IT1 / RFU, PANK3 / Fold change vs veh, PANK3 / RFU, SH3YL1 / Fold change vs veh, SH3YL1 / RFU, ZEB2 / Fold change vs veh, ZEB2 / RFU, NRIP1 / Fold change vs veh, NRIP1 / RFU, PTTG1IP / Fold change vs veh, PTTG1IP / RFU, CAPN2 / Fold change vs veh, CAPN2 / RFU, MED14 / Fold change vs veh, MED14 / RFU, SNORA58 / Fold change vs veh, SNORA58 / RFU, C1orf63 / Fold change vs veh, C1orf63 / RFU, LRRFIP1 / Fold change vs veh, LRRFIP1 / RFU, NDUFAF7 / Fold change vs veh, NDUFAF7 / RFU, SLC12A2 / Fold change vs veh, SLC12A2 / RFU, IBTK / Fold change vs veh, IBTK / RFU, ESF1 / Fold change vs veh, ESF1 / Fold change vs veh, TMEM50B / RFU, TAOK1 / Fold change vs veh, TAOK1 / RFU, ACBD3 / Fold change vs veh, ACBD3 / RFU, TMA16 / Fold change vs veh, TMA16 / RFU, RWDD3 / Fold change vs veh, RWDD3 / RFU, BCAT1 / Fold change vs veh, BCAT1 / RFU, EDEM3 / Fold change vs veh, EDEM3 / RFU, TMEM33 / Fold change vs veh, TMEM33 / RFU, WDR75 / Fold change vs veh, WDR75 / RFU, AHCTF1 / Fold change vs veh, AHCTF1 / RFU, TFRC / Fold change vs veh, TFRC / RFU, ZDHHC17 / Fold change vs veh, ZDHHC17 / RFU, NOM1 / Fold change vs veh, NOM1 / RFU, ARL8B / Fold change vs veh, ARL8B / RFU, ZBTB11 / Fold change vs veh, ZBTB11 / RFU, TAMM41 / Fold change vs veh, TAMM41 / RFU, KIAA1704 /// LOC100996395 / Fold change vs veh, KIAA1704 /// LOC100996395 / RFU, ING1 / Fold change vs veh, ING1 / RFU, TRMT61B / Fold change vs veh, TRMT61B / RFU, FUBP3 / Fold change vs veh, FUBP3 / RFU, TP53 / Fold change vs veh, TP53 / RFU, TNKS2 / Fold change vs veh, TNKS2 / RFU, ZFP14 / Fold change vs veh, ZFP14 / RFU, ACTR2 / Fold change vs veh, ACTR2 / RFU, PPP3R1 / Fold change vs veh, PPP3R1 / RFU, PIK3R1 / Fold change vs veh, PIK3R1 / RFU, HNRNPA1 / Fold change vs veh, HNRNPA1 / RFU, RNF170 / Fold change vs veh, RNF170 / RFU, ZNF28 / Fold change vs veh, ZNF28 / RFU, RNGTT / Fold change vs veh, RNGTT / RFU, OGT / Fold change vs veh, OGT / RFU, BRD1 / Fold change vs veh, BRD1 / RFU, MARS / Fold change vs veh, MARS / RFU, ZNF655 / Fold change vs veh, ZNF655 / RFU, FAHD1 / Fold change vs veh, FAHD1 / RFU, BDP1 / Fold change vs veh, BDP1 / RFU, LRRCC1 / Fold change vs veh, LRRCC1 / RFU, ARID1A / Fold change vs veh, ARID1A / RFU, ZNF146 / Fold change vs veh, ZNF146 / RFU, ZNF330 / Fold change vs veh, ZNF330 / RFU, GPN3 / Fold change vs veh, GPN3 / RFU, C9orf123 / Fold change vs veh, C9orf123 / RFU, N4BP2L2 / Fold change vs veh, N4BP2L2 / RFU, ARFIP1 / Fold change vs veh, ARFIP1 / RFU, FAM179B / Fold change vs veh, FAM179B / RFU, BCL10 / Fold change vs veh, BCL10 / RFU, UHRF1BP1L / Fold change vs veh, UHRF1BP1L / RFU, BET1 / Fold change vs veh, BET1 / RFU, CNOT2 / Fold change vs veh, CNOT2 / RFU, ZNF268 / Fold change vs veh, ZNF268 / Fold change vs veh, ZNF507 / RFU, DGCR2 / Fold change vs veh, DGCR2 / RFU, WDSUB1 / Fold change vs veh, WDSUB1 / Fold change vs veh, HSP90B1 /// MIR3652 / RFU, ADSS / Fold change vs veh, ADSS / RFU, GK / Fold change vs veh, GK / RFU, ZNF148 / Fold change vs veh, ZNF148 / RFU, TAF9 / Fold change vs veh, TAF9 / RFU, SLC1A5 / Fold change vs veh, SLC1A5 / RFU, SLMO2 / Fold change vs veh, SLMO2 / RFU, ABCC4 / Fold change vs veh, ABCC4 / RFU, LOC101060439 /// RAP1B / Fold change vs veh, LOC101060439 /// RAP1B / RFU, RFX7 / Fold change vs veh, RFX7 / RFU, GTPBP10 / Fold change vs veh, GTPBP10 / RFU, CNEP1R1 / Fold change vs veh, CNEP1R1 / RFU, BIVM-ERCC5 /// ERCC5 / Fold change vs veh, BIVM-ERCC5 /// ERCC5 / RFU, ILF3 / Fold change vs veh, ILF3 / RFU 11762660_at / Fold change /veh 11762660_at / RFU VCAN (11757783_s_at) / Fold change /veh VCAN (11757783_s_at) / RFU DDX43 (11728927_at) / Fold change /veh DDX43 (11728927_at) / RFU KRT8 (11758188_x_at) / Fold change /veh KRT8 (11758188_x_at) / RFU NKD1 (11759106_at) / Fold change /veh NKD1 (11759106_at) / RFU SRD5A1 (11742802_a_at) / Fold change /veh SRD5A1 (11742802_a_at) / RFU TPSAB1 /// TPSB2 (11721975_s_at) / Fold change /veh TPSAB1 /// TPSB2 (11721975_s_at) / RFU GSTM3 (11746129_a_at) / Fold change /veh GSTM3 (11746129_a_at) / RFU IL23R (11737362_x_at) / Fold change /veh IL23R (11737362_x_at) / RFU TMEM51 (11727254_a_at) / Fold change /veh TMEM51 (11727254_a_at) / RFU PIWIL2 (11732686_x_at) / Fold change /veh PIWIL2 (11732686_x_at) / RFU ORM1 (11744905_x_at) / Fold change /veh ORM1 (11744905_x_at) / RFU CCDC152 (11743942_at) / Fold change /veh CCDC152 (11743942_at) / RFU ECM1 (11717891_a_at) / Fold change /veh ECM1 (11717891_a_at) / RFU IL23R (11748794_a_at) / Fold change /veh IL23R (11748794_a_at) / RFU TNFAIP8L3 (11732012_x_at) / Fold change /veh TNFAIP8L3 (11732012_x_at) / RFU MBOAT4 (11741988_at) / Fold change /veh MBOAT4 (11741988_at) / RFU 11764193_at / Fold change /veh 11764193_at / RFU TMEM53 (11763286_at) / Fold change /veh TMEM53 (11763286_at) / RFU MAGEB2 (11727129_at) / Fold change /veh MAGEB2 (11727129_at) / RFU TMEM200A (11744735_a_at) / Fold change /veh TMEM200A (11744735_a_at) / RFU CCDC152 (11751479_a_at) / Fold change /veh CCDC152 (11751479_a_at) / RFU FAM211A (11726209_a_at) / Fold change /veh FAM211A (11726209_a_at) / RFU RGS16 (11746705_a_at) / Fold change /veh RGS16 (11746705_a_at) / RFU VCAN (11755009_s_at) / Fold change /veh VCAN (11755009_s_at) / RFU RHOB (11743442_s_at) / Fold change /veh RHOB (11743442_s_at) / RFU RGS16 (11720943_a_at) / Fold change /veh RGS16 (11720943_a_at) / RFU RGS16 (11720944_at) / Fold change /veh RGS16 (11720944_at) / RFU, VPS4B / Fold change vs veh, VPS4B / RFU, CREB1 / Fold change vs veh, CREB1 / RFU, DNAJC13 / Fold change vs veh, DNAJC13 / RFU, GNAQ / Fold change vs veh, GNAQ / RFU, CDK5R1 / Fold change vs veh, CDK5R1 / RFU, ZRANB3 / Fold change vs veh, ZRANB3 / RFU, CUL4A / Fold change vs veh, CUL4A / RFU, CCNY / Fold change vs veh, CCNY / RFU, UFL1 / Fold change vs veh, UFL1 / RFU, COG3 / Fold change vs veh, COG3 / RFU, DIAPH2 / Fold change vs veh, DIAPH2 / RFU, SKA2 / Fold change vs veh, SKA2 / RFU, AFF3 / Fold change vs veh, AFF3 / RFU, LMF1 / Fold change vs veh, LMF1 / RFU, IPO11 / Fold change vs veh, IPO11 / RFU, DFFB / Fold change vs veh, DFFB / RFU, FOXP1 / Fold change vs veh, FOXP1 / RFU, CARD8 / Fold change vs veh, CARD8 / RFU, STRN3 / Fold change vs veh, STRN3 / RFU, ADK / Fold change vs veh, ADK / RFU, RASSF2 / Fold change vs veh, RASSF2 / RFU, WIPF1 / Fold change vs veh, WIPF1 / RFU, LARP1B / Fold change vs veh, LARP1B / RFU, RASA1 / Fold change vs veh, RASA1 / RFU, RB1 / Fold change vs veh, RB1 / RFU, PPFIA1 / Fold change vs veh, PPFIA1 / RFU, MAT2A / Fold change vs veh, MAT2A / RFU, CCT5 / Fold change vs veh, CCT5 / RFU, WDR92 / Fold change vs veh, WDR92 / RFU, CUX1 / Fold change vs veh, CUX1 / RFU, TTC7A / Fold change vs veh, TTC7A / RFU, TMEM135 / Fold change vs veh, TMEM135 / RFU, DEPTOR / Fold change vs veh, DEPTOR / RFU, CPM / Fold change vs veh, CPM / RFU, DNAJB6 / Fold change vs veh, DNAJB6 / RFU, CACNA2D3 / Fold change vs veh, CACNA2D3 / RFU, DTX4 / Fold change vs veh, DTX4 / RFU, TFCP2 / Fold change vs veh, TFCP2 / RFU, GMCL1 /// GMCL1P1 / Fold change vs veh, GMCL1 /// GMCL1P1 / RFU, AEBP2 / Fold change vs veh, AEBP2 / RFU, SNHG1 /// SNORD22 /// SNORD25 /// SNORD26 /// SNORD27 /// SNORD28 /// SNORD29 /// SNORD31 / Fold change vs veh, SNHG1 /// SNORD22 /// SNORD25 /// SNORD26 /// SNORD27 /// SNORD28 /// SNORD29 /// SNORD31 / Fold change (Aza/veh), C12orf56 (ProbeSet 11735607_a_at) / Fold change (ACY-1035/veh), C12orf56 (ProbeSet 11735607_a_at) / Fold change (Aza/veh), FGFR1OP (ProbeSet 11751329_s_at) / Fold change (ACY-1035/veh), FGFR1OP (ProbeSet 11751329_s_at) / Fold change (Aza/veh), VPS36 (ProbeSet 11739960_a_at) / Fold change (ACY-1035/veh), VPS36 (ProbeSet 11739960_a_at) / RFU SYPL1 (11715823_x_at) / Fold change /veh SYPL1 (11715823_x_at) / RFU IGFBP7 (11715501_s_at) / Fold change /veh IGFBP7 (11715501_s_at) / RFU REEP3 (11722064_at) / Fold change /veh REEP3 (11722064_at) / RFU IGLL1 (11728026_x_at) / Fold change /veh IGLL1 (11728026_x_at): dose or concentration left out as unconfirmed
Details: ProbeSet 11743510_at; LIST D

SMILES: Nc1ncn([C@@H]2O[C@H](CO)[C@@H](O)[C@H]2O)c(=O)n1 [azacitidine]
- Fold change vs veh, UFL1: 0.83
